Reference: publication PMC9769880, “Diverse Sensory Repertoire of Paralogous Chemoreceptors Tlp2, Tlp3, and Tlp4 in Campylobacter jejuni” (Microbiology Spectrum, 2022)
Where two headings read alike, the source gives them in different places.

Assays:
Test in all cases: biochemical
Tlp4 = Tlp4 (Campylobacter jejuni, UniProt Q0PBP3); assay type: binding
Experimental: (§1) His-tagged proteins (Tlp2, -3, and -4) were prepared as previously described ([11]) DNA segments encoding the periplasmic sensory domains (33 to 286 amino acids) of Tlp2 and (38 to 297 amino acids) of Tlp4 were amplified (see Table S7), ligated into pGEM-T Easy (Promega) and subcloned into pET-19b (Novagen) (see Table S6). Recombinant proteins were expressed in E. coli BL21(DE3) using 1 mM IPTG (isopropyl-β-D-thiogalactopyranoside) and purified using His-select-nickel chromatography as described previously ([8], [11]). The purity of the proteins was confirmed by SDS-PAGE and Western blot analysis with anti-His antibodies (Bio-Rad). Protein concentrations were determined using a NanoDrop spectrophotometer (Thermo Fisher).
(§2) Surface plasmon resonance (SPR) experiments were performed as described previously ([10], [11]) with the following modifications. Briefly, purified proteins were diluted to 0.15 μM in sodium acetate (pH 4.0) and immobilized onto an active flow cell of a CM5 sensor chip with a flow rate of 5 μL/min for 7 min of contact time using a standard amine coupling protocol. Immobilized protein levels for all three proteins ranged from 6028.3 to 9779.3 response units (RU) providing a minimum expected response maximum (RMax) between 20 and 50 RU for the small molecules tested. […] All ligands were prepared in PBS (pH 7.2) and serially diluted from 0.2 to 0.0125 mM. A 10-min dissociation period was allocated after the introduction of each analyte. SPR experiments were performed in single-cycle kinetics mode using the BIAcore S200 biosensor system (Cytiva) at 25°C in PBS (pH 7.2) at a flow rate of 30 μL/min. The equilibrium dissociation constant (KD) for each analyte was determined using BIAcore S200 Evaluation software with a report point 4 s after the injection stop to account for the bulk transfer of the small molecule against a large amount of immobilized protein (as shown in Fig. S5).

Tlp2 = Tlp2 (Campylobacter jejuni, UniProt Q0PBZ3); assay type: binding
Tlp2, sequence (Q0PBZ3 entry or part of it): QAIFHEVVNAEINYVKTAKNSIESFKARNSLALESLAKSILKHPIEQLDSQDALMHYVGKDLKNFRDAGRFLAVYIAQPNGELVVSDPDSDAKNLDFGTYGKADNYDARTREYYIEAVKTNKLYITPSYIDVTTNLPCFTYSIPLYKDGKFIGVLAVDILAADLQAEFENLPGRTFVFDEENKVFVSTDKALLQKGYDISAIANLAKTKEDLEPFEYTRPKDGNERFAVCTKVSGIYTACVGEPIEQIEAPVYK
Experimental: as §1, §2

Tlp3^LBD D169A = Tlp3^LBD D169A (Campylobacter jejuni, UniProt Q0P864, D169A)
Tlp3^LBD D169A, sequence (Q0P864 41-290 D169A): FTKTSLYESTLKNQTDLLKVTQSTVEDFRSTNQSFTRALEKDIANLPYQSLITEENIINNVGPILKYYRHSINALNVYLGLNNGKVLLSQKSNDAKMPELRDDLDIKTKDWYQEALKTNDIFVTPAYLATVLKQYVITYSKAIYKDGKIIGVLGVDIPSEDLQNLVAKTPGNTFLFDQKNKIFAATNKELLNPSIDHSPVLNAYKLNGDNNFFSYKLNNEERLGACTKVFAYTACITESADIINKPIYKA

Tlp3 = Tlp3 (Campylobacter jejuni, UniProt Q0P864); assay type: binding
Tlp3, sequence (Q0P864 entry or part of it): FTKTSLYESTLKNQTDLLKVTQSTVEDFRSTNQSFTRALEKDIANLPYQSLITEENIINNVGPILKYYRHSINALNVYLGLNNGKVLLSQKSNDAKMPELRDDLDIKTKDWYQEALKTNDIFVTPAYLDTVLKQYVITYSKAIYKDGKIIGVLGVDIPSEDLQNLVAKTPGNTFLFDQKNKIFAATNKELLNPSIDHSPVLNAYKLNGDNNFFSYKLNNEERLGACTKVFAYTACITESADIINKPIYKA
Experimental: as §1, with “The purity of the proteins was confirmed by SDS-PAGE and Western blot analysis with anti-His antibodies (Bio-Rad).” left out
Surface plasmon resonance (SPR) experiments were performed as described previously ([10], [11]) with the following modifications. […] All ligands were prepared in PBS (pH 7.2) and serially diluted from 0.2 to 0.0125 mM. A 10-min dissociation period was allocated after the introduction of each analyte. SPR experiments were performed in single-cycle kinetics mode using the BIAcore S200 biosensor system (Cytiva) at 25°C in PBS (pH 7.2) at a flow rate of 30 μL/min. The equilibrium dissociation constant (KD) for each analyte was determined using BIAcore S200 Evaluation software with a report point 4 s after the injection stop to account for the bulk transfer of the small molecule against a large amount of immobilized protein (as shown in Fig. S5).

Tlp3^LBD K149A = Tlp3^LBD K149A (Campylobacter jejuni, UniProt Q0P864, K149A)
Tlp3^LBD K149A, sequence (Q0P864 41-290 K149A): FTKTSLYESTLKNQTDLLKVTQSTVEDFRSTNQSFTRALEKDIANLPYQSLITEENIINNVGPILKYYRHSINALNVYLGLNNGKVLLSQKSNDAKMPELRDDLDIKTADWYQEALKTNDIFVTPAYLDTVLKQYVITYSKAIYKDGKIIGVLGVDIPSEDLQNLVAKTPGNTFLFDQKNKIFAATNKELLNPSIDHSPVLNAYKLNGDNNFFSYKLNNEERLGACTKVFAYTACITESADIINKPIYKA

Tlp3^LBD D196A = Tlp3^LBD D196A (Campylobacter jejuni, UniProt Q0P864, D196A)
Tlp3^LBD D196A, sequence (Q0P864 41-290 D196A): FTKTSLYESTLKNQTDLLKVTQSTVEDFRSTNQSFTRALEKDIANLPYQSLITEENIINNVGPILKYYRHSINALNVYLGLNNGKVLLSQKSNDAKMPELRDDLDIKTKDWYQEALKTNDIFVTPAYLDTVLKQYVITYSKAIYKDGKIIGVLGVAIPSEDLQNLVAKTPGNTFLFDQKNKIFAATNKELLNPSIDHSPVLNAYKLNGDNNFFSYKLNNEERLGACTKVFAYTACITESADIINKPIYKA

Tlp3^LBD W151A = Tlp3^LBD W151A (Campylobacter jejuni, UniProt Q0P864, W151A)
Tlp3^LBD W151A, sequence (Q0P864 41-290 W151A): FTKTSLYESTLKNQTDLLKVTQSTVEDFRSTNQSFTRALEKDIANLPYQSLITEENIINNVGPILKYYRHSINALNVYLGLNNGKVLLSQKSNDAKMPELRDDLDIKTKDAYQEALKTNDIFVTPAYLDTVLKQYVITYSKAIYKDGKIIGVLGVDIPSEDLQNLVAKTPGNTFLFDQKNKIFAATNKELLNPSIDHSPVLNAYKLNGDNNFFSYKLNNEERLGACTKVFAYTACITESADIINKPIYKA

Tlp3^LBD D170A = Tlp3^LBD D170A (Campylobacter jejuni, UniProt Q0P864)
Tlp3^LBD D170A, sequence (Q0P864 41-290 T170A): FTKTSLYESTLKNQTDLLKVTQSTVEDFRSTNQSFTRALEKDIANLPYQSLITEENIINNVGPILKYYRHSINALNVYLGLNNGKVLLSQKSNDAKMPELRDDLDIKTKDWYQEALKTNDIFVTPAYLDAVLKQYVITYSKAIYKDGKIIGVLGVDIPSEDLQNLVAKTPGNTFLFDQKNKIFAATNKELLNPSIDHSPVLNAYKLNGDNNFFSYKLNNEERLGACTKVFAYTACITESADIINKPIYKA

[1] = SPR KD, mean ± SD, NB = no binding, read-out: Tlp4 Affinity
[2] = SPR KD, mean ± SD, NB = no binding, read-out: Tlp2 Affinity

Tlp4, sequence (Q0PBP3 entry or part of it): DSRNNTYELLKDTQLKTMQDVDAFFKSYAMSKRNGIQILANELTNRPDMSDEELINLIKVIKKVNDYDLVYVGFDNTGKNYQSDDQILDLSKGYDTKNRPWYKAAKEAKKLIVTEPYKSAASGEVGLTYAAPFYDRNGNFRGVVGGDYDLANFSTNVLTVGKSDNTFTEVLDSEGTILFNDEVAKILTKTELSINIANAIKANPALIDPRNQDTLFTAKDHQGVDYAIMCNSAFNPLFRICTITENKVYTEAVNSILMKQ

Row | Compound | Kd (Tlp4; [1]) [µM] | Kd (Tlp2; [2]) [µM] | Kd (Tlp3^LBD D169A) [µM] | Kd (Tlp3) [µM] | Kd (Tlp3^LBD K149A) [µM] | Kd (Tlp3^LBD D196A) [µM] | Kd (Tlp3^LBD W151A) [µM] | Kd (Tlp3^LBD D170A) [µM] | Kd (Tlp4) [µM] | Kd (Tlp2) [µM]
1 | C[C@H](O)[C@@H](O)[C@@H](O)[C@H](O)C=O [Fucose] | 16.2 ± 2.2 | 15.5 ± 0.9 | 50 ± 17.6 | 25.2 ± 6.5 | 63.7 ± 16.8 | 41.9 ± 13.2 | 66.9 ± 14.6 | 46.6 ± 16.1 | – | –
2 | NCCCC[C@H](N)C(=O)O [Lysine] | – | – | 29.2 ± 4.9 | 4.3 ± 1.6 | 32.3 ± 5.3 | 16.1 ± 9.1 | 27.3 ± 5.9 | 14.5 ± 4.8 | 19.7 ± 3.9 | 18.6 ± 1.5
3 | CC(=O)N[C@H]1[C@H]([C@H](O)[C@H](O)CO)OC(O)(C(=O)O)C[C@@H]1O (stereo partly drawn) [Sialic acid] | 0.8 ± 0.1 | 1.7 ± 0.2 | 25.2 ± 8.5 | 9 ± 0.2 | 24 ± 6.6 | 36.8 ± 3 | 17.3 ± 4.4 | 16.6 ± 2 | – | –
